Source: patent publication US20240342158A1, “METHOD OF TREATING AND/OR PREVENTING TYPE 1 DIABETES WITH CEPHARANTHINE” (ALBERT EINSTEIN COLLEGE OF MEDICINE, priority 2021, published 2024)

Experiments:
[1] = tested on: humanized NOD-DR3 mice immunized with Tg.1571, GAD.492 and TPO.758; assay: Blocking the induction of APS3v in vivo: T-cell stimulation by CFSE analysis; set-up: stimulation index, T cell proliferation induced by GAD.492 / stimulation index, T cell proliferation induced by TPO.758 / T-cell proliferation induced by Tg.1571: dose or concentration left out as unconfirmed
Protocol: Blocking the Induction of APS3v by cepharanthine In Vivo: […] with the peptide mix of Tg.1571, GAD.492 and TPO.758 on day 0; mice were injected with cepharanthine IP again on days 5 and 6 prior to immunization with the same peptide mix on day 7. As controls, four humanized NOD-DR3 littermates were injected with the vehicle that was used to dissolve cepharanthine for in vivo studies [ethanol: PEG400 (Fisher Scientific): saline (5:20:75)] (Frontage Laboratories, Exton, PA) using the same timeline for immunizations.
T-Cell Stimulation and CFSE Analysis: Cells harvested from the spleen and draining lymph nodes of immunized mice were resuspended at 2×10^6 cells/ml in 0.1% BSA/PBS. 1×10^6 cells were labeled with 1.5 μM carboxyfluorescein diacetate succinimidyl ester (CFSE) (Life Technologies). After incubating for 10 min at 37° C., the staining was terminated by the addition of 4 volumes of ice-cold RPMI with 10% FBS. After incubating on ice for 5 min, the cells were washed three times with fresh RPMI and resuspended in fresh medium for counting.
The CFSE-labeled cells were plated at 2×10^5 cells/well in 100 μl medium (RPMI, 10% FBS). The cells were incubated with: medium, Tg.1571, GAD.492, TPO.758 (20 μg/ml), a negative control peptide (NC) (20 μg/ml), or mouse anti-CD3/CD28 beads (Life Technologies) that activate all CD4+ T-cells nonspecifically, as a positive control. The cells were collected after 5 days for flow cytometry analysis. All experiments were performed in quadruplicates. The results were analyzed using Flowjo (Tree Star, Ashland, OR). The stimulation index was calculated by using the following formula: stimulation index=[% proliferating lymphocytes (peptide/mitogen-treated)]/[% proliferating lymphocytes (medium-treated)].
Four humanized NOD-DR3mice were treated with cepharanthine (S53) or vehicle (used to dissolve cepharanthine) for 2 consecutive days before each of the two immunizations with Tg.1571,GAD.492 and TPO.758 peptide mix. At sacrifice, splenocytes and draining lymph node cells were incubated with each peptide and labeled with CFSE for 5 days for T-cell stimulation analysis. Briefly, the CFSE labeled cells were plated at 2×10^5 cells/well in 100 μl medium (RPMI, 10% FBS).The cells were incubated with: medium, Tg.1571, GAD.492, TPO.758 (20 μg/ml), a negative control peptide (NC) (20 μg/ml), or mouse anti-CD3/CD28 beads (Life Technologies) that activate all CD4+ T-cells non-specifically, as a positive control. The cells were collected after 5 days for flow cytometry analysis (see Materials and Methods for details).

[2] = tested on: splenocytes and draining lymph node cells of immunized NOD-DR3 mice; assay: Small molecule inhibition of cytokine production ex vivo (Milliplex); type: cell-based, humanized NOD-DR3 mice
Protocol: Cytokine Assays: Milliplex mouse cytokines/chemokine magnetic panel (Catalog no. MCYTOMAG-70K, EMD Millipore Corporation, Billerica, MA) was used to assay the cytokines, as described in the art. Briefly, splenocytes were plated at 2×10^6 cells per well in 500 μl of medium (RPMI/10% FBS). Supernatants from stimulated lymphocytes were collected 48 h after stimulation with peptides and stored in −80° C. until the assay was performed. The 96-well plate supplied in the kit was washed with the wash buffer supplied and the plate was shaken for 10 min at room temperature. Standards and quality controls were added, followed by the samples. The pre-mixed beads (Interferon gamma and IL-2) were sonicated, vortexed and added to the wells. After shaking the plate overnight at 4° C., the plate was washed twice with wash buffer. Detection antibodies were added for 1 h at room temperature, and Streptavidin-Phycoerythrin was added for 30 min at room temperature. The plate was washed twice and sheath fluid was added to resuspend the beads for 5 min before reading in Luminex 200 with xPONENT software (Luminex, Austin, Texas).
Small Molecule Inhibition of Cytokine Production Ex Vivo: Eight NOD-DR3 mice were immunized with the three thyroidal/islet peptides. Upon sacrifice, splenocytes were incubated with 1 μM of small molecules (S5, S9, S15, S53) together with TPO.758 (20 μg/ml), GAD.492 (20 μg/ml) or Tg.1571 (20 μg/ml) respectively to assess the blockade of these peptides' presentation by the tested small molecules. Supernatants from stimulated lymphocytes were collected 48 h after stimulation with peptides and small molecules, and stored in −80° C. until the cytokine assay was performed. […]

## COc1ccc2cc1Oc1ccc(cc1)C[C@H]1c3c(cc4c(c3Oc3cc5c(cc3OC)CCN(C)[C@@H]5C2)OCO4)CCN1C [S53, Cepharanthine]
[1]; -1, 5, 6, CFSE, 5 days, vehicle control 3.21
  stimulation index, T cell proliferation induced by GAD.492: 1.53
[1]; -1, 5, 6, CFSE, 5 days, vehicle control 6.39
  stimulation index, T cell proliferation induced by TPO.758: 3.11
[1]; -1, 5, 6, CFSE, 5 days, vs vehicle
  T-cell proliferation induced by Tg.1571: suppressed T-cell proliferation induced by Tg.1571, although not statistically significant
[1]; IV on days -2, -1, 5 and 6 at 1 mg/kg, sacrificed day 21
  T-cell activation (lymphocyte proliferation, CFSE) in treated mice vs vehicle treated controls: significantly suppressed T-cell activation
[2]; 1 μM small molecule + Tg.1571 20 μg/ml, 48 h
  IFN-g production in response to Tg.1571: did not significantly reduce
[2]; 1 micromolar, Tg.1571, GAD.492, TPO.758
  inhibition of T-cell activation to all 3 peptides (production of IFNγ and IL-2): consistently inhibited T-cell activation to all 3 peptides
